Patent US9708259B2 (Hoffmann-La Roche Inc., priority 2013, dated 2017)
Numbering of substitutions follows the chain as printed. pEC50: −log10 of the molar value. Where two headings read alike, the source gives them in different places.

What was measured:
ratM1 = target: T1, ratM1 (Rattus norvegicus, UniProt P08482); assay: M1 PAM assay (FLIPR intracellular calcium), rat M1; assay type: cell-based
T1 construct: expressed in transfected cells; host or cells: CHO cells (stated generally for the assay, not specifically for rat M1)
T1 sequence (P08482 1-460): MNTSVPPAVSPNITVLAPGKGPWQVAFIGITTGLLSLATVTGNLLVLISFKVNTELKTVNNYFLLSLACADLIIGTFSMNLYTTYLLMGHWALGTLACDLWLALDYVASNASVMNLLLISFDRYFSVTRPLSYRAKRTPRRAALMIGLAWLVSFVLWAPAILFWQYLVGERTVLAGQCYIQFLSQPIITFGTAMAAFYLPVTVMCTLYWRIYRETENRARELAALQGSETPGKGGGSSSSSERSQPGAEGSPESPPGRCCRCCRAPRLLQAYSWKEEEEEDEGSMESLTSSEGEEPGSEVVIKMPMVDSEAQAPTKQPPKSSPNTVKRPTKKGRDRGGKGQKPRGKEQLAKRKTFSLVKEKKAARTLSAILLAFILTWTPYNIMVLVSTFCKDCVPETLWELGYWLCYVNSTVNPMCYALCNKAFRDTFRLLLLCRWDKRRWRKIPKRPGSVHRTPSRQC

human M1 = target: T2, human M1 (Homo sapiens, UniProt P11229); assay: M1 PAM assay (FLIPR intracellular calcium), human M1; assay type: cell-based
T2 construct: expressed in transfected cells; host or cells: CHO cells
T2 sequence (P11229 1-460): T1 sequence (P08482 1-460) with V5A, S254T, S309P, K320R, G337A, V413I
Outline: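 CHO cells expressing M1, Fluo-4AM-loaded, in HEPES/probenecid HBSS pH 7.4, 1% DMSO final. Compounds pre-incubated 2 min for agonist activity versus 30 nM acetylcholine control. For PAM activity, acetylcholine EC20 added after the 2 min pre-incubation, then 2 min more before FLIPR intracellular Ca2+ read.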

[1] = rat M1, FLIPR Ca2+, second value of the cell, read-out: ratM1 EC50
[2] = CHO human M1 cells, FLIPR Ca2+, with EC20 of acetylcholine, first value of the cell, read-out: hM1 EC50

Row | SMILES | pEC50 (ratM1; [1]) | pEC50 (human M1; [2]) | pEC50 (ratM1) | pEC50 (human M1)
1 | Cn1cc(-c2ccc(Cn3cc(C(=O)N[C@H]4CCCC(F)(F)[C@@H]4O)c4c(F)cccc43)c(F)c2)cn1 [Example 103, N-((1S,2R)-3,3-difluoro-2-hydroxycyclohexyl)-4-fluoro-1-(2-fluoro-4-(1-methyl-1H-pyrazol-4-yl)benzyl)-1H-indole-3-carboxamide] | 7.49 | 8.15 | – | –
2 | Cn1cc(-c2ccc(Cn3cc(C(=O)N[C@H]4CCOC[C@@H]4O)c4c(F)ccc(C5CC5)c43)c(F)c2)cn1 [Example 107, 7-cyclopropyl-4-fluoro-1-(2-fluoro-4-(1-methyl-1H-pyrazol-4-yl)benzyl)-N-((3R,4S)-3-hydroxytetrahydro-2H-pyran-4-yl)-1H-indole-3-carboxamide] | 6.12 | 6.32 | – | –
3 | Cc1cn(-c2ccc(Cn3cc(C(=O)N[C@H]4CCCC[C@@H]4O)c4c(F)cccc43)cc2)cn1 [Example 36, 4-fluoro-N-((1S,2S)-2-hydroxycyclohexyl)-1-(4-(4-methyl-1H-imidazol-1-yl)benzyl)-1H-indole-3-carboxamide] | 7.59 | 7.81 | – | –
4 | Cn1cc(-c2ccc(Cn3cc(C(=O)NC[C@H]4CCCO4)c4c(F)cccc43)cc2)cn1 [Example 10, (R)-4-fluoro-1-(4-(1-methyl-1H-pyrazol-4-yl)benzyl)-N-((tetrahydrofuran-2-yl)methyl)-1H-indole-3-carboxamide] | 6.40 | 6.59 | – | –
5 | CNC(=O)c1ccc(Cn2cc(C(=O)NC3(C)CCOCC3)c3c(F)cccc32)cc1 [Example 123, 4-fluoro-1-[[4-(methylcarbamoyl)phenyl]methyl]-N-(4-methyloxan-4-yl)indole-3-carboxamide] | 6.17 | 6.44 | – | –
6 | Cn1ncc2cc(Cn3cc(C(=O)N[C@H]4CCOC[C@@H]4O)c4c(F)cccc43)ccc21 (single isomer, unassigned) [Example 52, 4-fluoro-N-((3R,4S) or (3S,4R)-3-hydroxytetrahydro-2H-pyran-4-yl)-1-((1-methyl-1H-indazol-5-yl)methyl)-1H-indole-3-carboxamide] | – | – | 7.57 | 7.75
7 | Cn1cc(-c2ccc(Cn3cc(C(=O)N[C@H]4CCOC[C@@H]4O)c4c(F)cccc43)c(F)c2)cn1 (mixture of isomers) [Example 6, 4-fluoro-1-(2-fluoro-4-(1-methyl-1H-pyrazol-4-yl)benzyl)-N-((3R,4RS)-3-hydroxytetrahydro-2H-pyran-4-yl)-1H-indole-3-carboxamide] | 6.83 | 7.15 | – | –
8 | COc1ccc(F)c2c(C(=O)NC3CCOCC3)cn(Cc3ccc(-c4cnn(C)c4)cc3F)c12 [Example 152, 4-fluoro-1-(2-fluoro-4-(1-methyl-1H-pyrazol-4-yl)benzyl)-7-methoxy-N-(tetrahydro-2H-pyran-4-yl)-1H-indole-3-carboxamide] | 6.22 | 6.59 | – | –
9 | CCc1ccc(F)c2c(C(=O)N[C@H]3CCOC[C@@H]3O)cn(Cc3ccc(-c4cnn(C)c4)cc3)c12 [Example 109, 7-ethyl-4-fluoro-N-((3R,4S)-3-hydroxytetrahydro-2H-pyran-4-yl)-1-(4-(1-methyl-1H-pyrazol-4-yl)benzyl)-1H-indole-3-carboxamide] | 7.10 | 7.21 | – | –
10 | CNC(=O)c1ccc(Cn2cc(C(=O)NC3CCCCC3F)c3c(F)cccc32)cc1 (centres unmarked) [Example 121, 4-fluoro-N-(2-fluorocyclohexyl)-1-[[4-(methylcarbamoyl)phenyl]methyl]indole-3-carboxamide] | 7.77 | 8.22 | – | –
11 | O=C(N[C@H]1CCCC[C@@H]1O)c1cn(Cc2ccc(-n3ccnc3)nc2)c2cccc(F)c12 [Example 142, 1-((6-(1H-imidazol-1-yl)pyridin-3-yl)methyl)-4-fluoro-N-((1S,2S)-2-hydroxycyclohexyl)-1H-indole-3-carboxamide] | 6.68 | 7.12 | – | –
12 | O=C(N[C@H]1CCCC[C@@H]1O)c1cn(Cc2ccc(N3CCCC3)nc2)c2cccc(F)c12 [Example 162, 4-fluoro-N-((1S,2S)-2-hydroxycyclohexyl)-1-((6-(pyrrolidin-1-yl)pyridin-3-yl)methyl)-1H-indole-3-carboxamide] | 6.12 | 6.67 | – | –
13 | Cn1cc(-c2ccc(Cn3cc(C(=O)N[C@H]4CCCC(F)(F)[C@@H]4O)c4c(F)cccc43)cc2)cn1 [Example 101, N-((1S,2R)-3,3-difluoro-2-hydroxycyclohexyl)-4-fluoro-1-(4-(1-methyl-1H-pyrazol-4-yl)benzyl)-1H-indole-3-carboxamide] | 7.38 | 7.85 | – | –
14 | Cc1ccc(F)c2c(C(=O)NC3CCOCC3)cn(Cc3ccc(-c4cnn(C)c4)cc3)c12 [Example 49, 4-fluoro-7-methyl-1-(4-(1-methyl-1H-pyrazol-4-yl)benzyl)-N-(tetrahydro-2H-pyran-4-yl)-1H-indole-3-carboxamide] | 7.28 | 7.35 | – | –
15 | CNC(=O)c1ccc(Cn2cc(C(=O)NC)c3c(F)cccc32)cc1 [Example 110, 4-fluoro-N-methyl-1-[[4-(methylcarbamoyl)phenyl]methyl]indole-3-carboxamide] | 6.32 | 6.85 | – | –
16 | COc1ccc(Cn2cc(C(=O)N[C@H]3CCCC[C@@H]3O)c3c(F)cccc32)cc1 [Example 31, 4-fluoro-N-((1S,2S)-2-hydroxycyclohexyl)-1-(4-methoxybenzyl)-1H-indole-3-carboxamide] | – | – | 6.79 | 7.04
17 | Cn1cnc2cc(Cn3cc(C(=O)N[C@H]4CCCC[C@@H]4O)c4c(F)cccc43)ccc21 [Example 56, 4-fluoro-N-((1S,2S)-2-hydroxycyclohexyl)-1-((1-methyl-1H-benzo[d]yridine-5-yl)methyl)-1H-indole-3-carboxamide] | – | – | 6.55 | 6.87
18 | Cn1cc(-c2ccc(Cn3cc(C(=O)N[C@H]4CCC[C@@H]4O)c4c(F)cccc43)c(F)c2)cn1 [Example 17, 4-Fluoro-1-(2-fluoro-4-(1-methyl-1H-pyrazol-4-yl)benzyl)-N-((1S,2S)-2-hydroxycyclopentyl)-1H-indole-3-carboxamide] | 6.77 | 7.00 | – | –
19 | Cn1cc(-c2ccc(Cn3cc(C(=O)NC4CC(F)(F)C4)c4c(F)cccc43)cc2)cn1 [Example 9, N-(3,3-difluorocyclobutyl)-4-fluoro-1-(4-(1-methyl-1H-pyrazol-4-yl)benzyl)-1H-indole-3-carboxamide] | 6.39 | 6.44 | – | –
20 | Cn1cc(-c2ccc(Cn3cc(C(=O)N[C@H]4CCOC[C@@H]4O)c4c(F)ccc(C5CC5)c43)cc2)cn1 [Example 106, 7-cyclopropyl-4-fluoro-N-((3R,4S)-3-hydroxytetrahydro-2H-pyran-4-yl)-1-(4-(1-methyl-1H-pyrazol-4-yl)benzyl)-1H-indole-3-carboxamide] | 6.73 | 6.72 | – | –
21 | CNC(=O)c1ccc(Cn2cc(C(=O)NCC3CC3)c3c(F)cccc32)cc1 [Example 116, N-(cyclopropylmethyl)-4-fluoro-1-[[4-(methylcarbamoyl)phenyl]methyl]indole-3-carboxamide] | 6.49 | 7.13 | – | –
22 | Cn1cc(-c2ccc(Cn3nc(C(=O)N[C@@H]4CCCC[C@H]4O)c4c(F)cccc43)c(F)c2)cn1 [Example 4, 4-fluoro-1-(2-fluoro-4-(1-methyl-1H-pyrazol-4-yl)benzyl)-N-((1R,2R)-2-hydroxycyclohexyl)-1H-indazole-3-carboxamide] | 5.89 | 6.53 | – | –
